Test results as given in patent publication US20100168041A1, “COMBINATION OF MONOSACCHARIDES AND DESQUAMATING AGENTS, AND USE THEREOF” (L'OREAL, priority 2008, published 2010).

How the values were obtained:
[1] = test system: dermal fibroblasts of the reconstructed skin; experiment: Proliferation of fibroblasts in whole reconstructed skin (propidium iodide count); format: cell-based, human; conditions: 5 mM, within 48 hours of treatment
Source text: Rhamnose was studied on a model of whole reconstructed skin in order to measure its anti-ageing efficacy on the dermal compartment.
Briefly, the model of reconstructed skin used is that described by Bell et al. (Bell E. et al., The reconstitution of living skin, J. Invest. Dermatol., 1983, July; 81): it includes a dermal equivalent on which is reconstructed a multistratified epidermis; the dermal equivalent is manufactured from acid-soluble collagen, culture medium containing serum and normal adult human fibroblasts. After 5 days of shrinkage, this equivalent is inoculated with keratinocytes and then cultured for 6 days in immersion and for 7 days in emersion in order to obtain a multistratified and differentiated epidermis having a horny layer.
The reconstructed skin is treated with 5 mM rhamnose for 2 days and 5 days in the culture medium; after the treatment, the reconstructed skins are included in Tissue Tek in order to produce frozen sections 7 μm thick with a cryostat. […] Three frozen sections are prepared at random on each reconstructed skin; on each section, two microscopic fields (25× objective lens) are analysed by fluorescence microscopy and photographed. The dermal fibroblasts are thus counted for each reconstructed skin on six images in total representing the six microscopic fields considered. […]

[2] = test system: type I procollagen; experiment: Synthesis of procollagen 1 in reconstructed skin (indirect immunofluorescence); format: cell-based, human; conditions: for procollagen 1 synthesis: reconstructed skin
Experimental: Conventional detection via indirect immunofluorescence of type I procollagen in the dermis of the reconstructed skin was also performed on other series of frozen sections (anti-procoll 1 antibody (MAB 1912 Millipore)+FTIC-coupled conjugate (112-095-068 Jackson Immunoresearch)). In order to obtain bearings within the cutaneous architecture during the microscopic examination of the sections, the cell nuclei of the keratinocytes and fibroblasts are localized by staining them with propidium iodide, as described above. Three frozen sections are prepared at random on each reconstructed skin and on each section, and two microscopic fields (25× objective lens) are analysed by fluorescence microscopy and photographed. The levels of fluorescence proportional to the amount of type I procollagen are compared between the control skin and the skin treated with rhamnose.

[3] = test system: keratinocytes (HaCat line); experiment: Proliferation of keratinocytes (Cyquant, Nile red, XTT markers); format: cell-based; conditions: keratinocytes cultured in medium depleted in growth factors, vs untreated control
Experimental: The keratinocytes (HaCat line) are cultured under two conditions: whole defined culture medium (standard condition) and culture medium deficient in growth factors. This deficient medium gives rise to a controlled delay in cell proliferation. Under these conditions, it is then possible to measure the effects of compounds capable of compensating for the deficiency in growth factors of the culture medium and thus of relaunching the cell multiplication and/or of stimulating cell metabolism.
The keratinocyte proliferation is measured by means of three markers on the same cell population: the level of DNA, which is proportional to the number of cells (Cyquant probe), the level of constituent polar lipids of cell membranes (Nile red probe) and the mitochondrial respiration, which reflects the general cell metabolism (XTT probe).

Compound: C[C@H](O)[C@H](O)[C@@H](O)[C@@H](O)C=O [rhamnose, Rhamnose]
- growth of the dermal fibroblasts [1]: induces stimulation of growth
- green fluorescence (proportional to amount of type I procollagen) vs control skin ([2]; 1 mM for 120 hours): marked increase
- synthesis of type I procollagen by the fibroblasts ([2]; 1 mM for 120 hours): greatly stimulated
- procollagen 1 synthesis ([2]; 1 mM): stimulation of procollagen 1 synthesis
- procollagen 1 synthesis ([2]; 5 mM): stimulation of procollagen 1 synthesis
- keratinocyte proliferation [3]: activate keratinocyte proliferation
